Reference: patent US20110076258A1, “METHODS OF MODULATING T CELL- DEPENDENT IMMUNE RESPONSES” (Converge Biotech Inc., priority 2008, published 2011)
Entries after “also recorded” stand apart in the source; their conditions may differ.

What was measured:
NFAT1 = NFAT1 nuclear localization after T cell stimulation; assay type: cell-based, mouse
Method: (§1) In order to distinguish between TCR dependent and independent ERK activation, TCR signaling was blocked at 30 min after CD3 activation with the tyrosine kinase inhibitor PP2, which inhibits TCR dependent Ick/fyn src-like kinase activity.
NFAT nuclear translocation without concomitant MAPK activation, which can be obtained by ionomycin treatment, implements a transcriptional program leading to T cell anergy (Macian et al., Cell 109:719-731 (2002)). […] Then, we hypothesized that activation of T cells in the presence of oATP could induce T cell anergy.

crt^−/− FLC = assay: Graft-versus-host disease-like phenotype of crt^−/− fetal liver chimeras; assay type: in vivo, mouse
Method: Phenotype of crt^−/− FLC before treatment and after daily intravenous treatment with PBS or 6 mM oATP (100 μl) for 2 weeks (see Example 16).
Histopathological evaluation of skin biopsies executed in a blinded fashion. The graphs show selected examples of dramatic results seen with oATP treatment (see Example 16).
Recombinase-deficient Balb/c mice were reconstituted with hematopoietic progenitors from fetal liver of calreticulin (crt)^−/− and +/+E13 embryos (FIG. 21). The phenotype of the resulting crt^−/− fetal liver chimera (FLC), which mimics graft-versus-host disease (GVHD) (see, e.g., Porcellini et al., J Exp Med 203:461-471 (2006)), was assessed at weeks 8, 10 and 12 after transfer and compared to the phenotype of the crt^+/+ FLC at week 12.
crt^+/+ and crt^−/− FLCs received daily intravenous treatment with PBS or 6 mM oATP (100 μL) for two weeks.

[1] = tested on: naïve CD4^+ T cells / CD4^+CD25^+ natural Treg cells; assay: Treg differentiation and expansion in vitro (anti-CD3, irradiated splenocytes, IL-2); assay type: cell-based
Method: Treg cell generation was analyzed after 7-10 days of culture by flow cytometry.

ERK = ERK phosphorylation time course after CD3 stimulation, TCR signaling blocked with PP2 at 30 min; assay type: cell-based, mouse; conditions: added in combination with PP2
Method: After 30 min of stimulation, cells were either left untreated (first panel on the left), or treated with the src-like kinase inhibitor PP2 either alone (second panel) or in combination with oATP (third panel) or ARL (fourth panel).
as §1

mouse T cells = assay: IL-2 secretion by ELISA; assay type: cell-based
human T cells = assay: Proliferation of CFSE-loaded T cells, plate-bound anti-CD3/28 (FACS); assay type: cell-based; conditions: 100 μM oATP or 200 μM of PX10 peptide, four days
Method: Our results point to a role for pannexin hemichannels in ATP release in T cells. […] CFSE-loaded human T cells were stimulated with plate-bound anti-CD3/28 antibodies in the presence of 100 μM oATP or 200 μM of PX10 peptide. Four days later, the proliferation was measured by FACS analysis.

[2] = tested on: INS-HA transgenic RAG-2^−/− mice; assay: Diabetes by adoptive transfer of TCR-HA CD4 cells; assay type: in vivo, mouse
[3] = tested on: OVA-specific T cell clones; assay: Calcium imaging of CD3 responsiveness after pre-stimulation (anergy); assay type: cell-based, mouse; conditions: pre-incubated 16 h
Source text: NFAT nuclear translocation without concomitant MAPK activation, which can be obtained by ionomycin treatment, implements a transcriptional program leading to T cell anergy (Macian et al., Cell 109:719-731 (2002)). […] Then, we hypothesized that activation of T cells in the presence of oATP could induce T cell anergy. […] The effect of oATP was not due to altered turn-over of the TCR/CD3 complex at the cell surface, as determined by FACS analysis (data not shown).

cd3ε^−/− mice = assay: Inflammatory bowel disease induced by naïve CD4^+ T cells; assay type: in vivo, mouse
Source text: FIG. 8: Amelioration of inflammatory bowel disease by oATP treatment. • a) Photographs of representative mesenteric lymph nodes, spleens and colons from cd3ε^−/− mice adoptively transferred with CD4^+/CD25^+ and CD4^+ cells (see Example 5). […] Bar=1 cm • b) Histograms representing inflammation scores in animals treated as indicated (see methods section) (mean±SD; n=5, CD4^+/25^+ healthy control group; n=7, CD4^+ untreated group; n=8, CD4^+ oATP-treated group). • c) Hematoxilin/eosin (upper panels) and Alcian/PAS (lower panels) staining of colon sections from the indicated animals (all the microscopic pictures in the box were taken at the same magnification; scale bar=50 μm). […] Partial goblet cell depletion and reduction in size of Alcian-PAS-positive droplets are also noticeable (arrowheads); in mice reconstituted with CD4 cells and treated with PBS, the lamina propria is markedly expanded by inflammatory cell infiltrate with focal findings of crypt abscessation (arrow). Colonic crypts are also severely dysplastic with almost complete loss of goblet cells. • d) Cell recoveries from mesenteric lymph nodes and spleen of the indicated animals.
e) Absolute numbers of IL-2-, TNFα-, IFNγ- and IL-17-producing CD4^+ T cells in mesenteric lymph nodes from the indicated mice (mean±SD; n=5, CD4^+/25^+ healthy group; n=7, CD4^+ untreated group; n=8, CD4^+ oATP-treated group). *, P<0.05, **, P<0.001, ***, P<0.0001 • f) Absolute numbers of CD44^+CD62L^− effector/memory and CD69^+ CD4 cells recovered from mesenteric lymph nodes and spleen of the indicated group of animals (bars represent mean values).
To test oATP in a non-transgenic model of T cell-mediated inflammation, we induced inflammatory bowel disease (IBD) in T lymphopenic cd3ε^−/− mice by injecting naïve CD4^+ T cells. As a healthy control we used cd3ε^−/− mice injected with naïve CD4^+ T cells together with CD4^+CD25^+ cells comprising regulatory T cells (Treg). […] Starting at day 15 after cell transfer, the IBD group was daily injected intravenously either with PBS or oATP.

DBA/1 mice = assay: Collagen-induced arthritis model of rheumatoid arthritis; assay type: in vivo, mouse

`Nc1ncnc2c1ncn2[C@@H](C=O)O[C@@H](C=O)COP(=O)(O)OP(=O)(O)OP(=O)(O)O` [oATP] was tested, and the “nuclear localization of NFAT1” value (NFAT1) was “did not significantly affect”, the “histopathological evaluation of skin biopsies (inflammation and epidermal hyperplasia)” value (crt^−/− FLC; blinded) was “histological improvement” and the blepharitis (crt^−/− FLC; daily i.v. 6 mM oATP (100 μL) for two weeks) was “dramatically ameliorated”. For the same compound, the “Foxp3 by quantitative RT-PCR” value ([1]; first 6 days after anti-CD3 stimulation) was “progressive upregulation”, the “percentage of CD4^+CD25^highFoxp3^+ Treg cells” value ([1]; naïve CD4^+ T cells, oATP 100 μM) was “significantly enhanced” and the “expansion of Treg cells, Foxp3 expression level” value ([1]; sorted CD4^+CD25^+ natural Treg cells, oATP 100 μM) was “higher expression levels of Foxp3”. For the same compound, the “ERK phosphorylation / activity” value (ERK) was “significant inhibition; also recorded: almost completely abolished”, the IL-2 secretion (mouse T cells) was “strongly inhibited” and the T cell proliferation (human T cells) was “strongly inhibited”. For the same compound, the Blood glucose ([2]; day 12, twice daily i.v. and i.p. day 1 to 10) was “normal”, the “CD69^+ cells in the pancreas” value ([2]; mouse, in vivo) was “undetectable” and the “TCR-HA^+ cells in the pancreas” value ([2]; mouse, in vivo) was “barely detectable”. For the same compound, the “TCR-HA^+ cells in the spleen” value ([2]; mouse, in vivo) was “significantly reduced”, the “pathological findings in the pancreas” value ([2]; mouse, in vivo) was “no relevant pathological findings” and the “IL-6, IFN-γ and TNF-α on a per-cell basis, ex vivo splenocytes pulsed with HA 110-120 peptide” value ([2]; versus PBS-treated control group) was “significant reduction”. The “responsiveness in calcium imaging of previously stimulated T cells” value [3] was “reduced responsiveness”, the “macroscopic intestine phenotype (thickening of the bowel wall, unformed or absent stool)” value (cd3ε^−/− mice; 5 weeks after reconstitution, daily i.v. from day 15) was “significantly ameliorated” and the “number of proinflammatory cytokine (IL-2, IFN-γ and TNF-α)-secreting cells” value (cd3ε^−/− mice; mesenteric lymph nodes) was “significantly reduced”. For the same compound, the “cellularity, CD4^+ effector/memory subset (CD44^+62L^−) and CD69^+ cells in mesenteric lymph nodes and spleen” value (cd3ε^−/− mice; mouse, in vivo) was “undistinguishable from healthy controls”, the “colon histology (hematoxilin/eosin, Alcian/PAS)” value (cd3ε^−/− mice; mouse, in vivo) was “lamina propria is focally expanded by inflammatory cells infiltrate” and the “inflammation score versus animals injected with CD4^+ and Treg cells” value (cd3ε^−/− mice; mouse, in vivo) was “not significantly different”. For the same compound, the “number of IL-17 secreting cells” value (cd3ε^−/− mice; mouse, in vivo) was “analogous to the number in control mice”, the “spleen and mesenteric lymph nodes size” value (cd3ε^−/− mice; mouse, in vivo) was “normal in size” and the “clinical score variation versus control group” value (DBA/1 mice; 3 mM in 100 μl i.v., after the initial five days of treatment) was “consistently lower”. For the same compound, the “collagen-specific antibodies (type II collagen ELISA)” value (DBA/1 mice; versus control mice) was “decreased” and the “cellular damage due to toxicity, PI staining versus untreated” value (crt^−/− CD4^+ T cells) was “did not reveal any difference”.
